The values that follow come from a melting point compilation (Tetko et al.; mined from patent text by program, amines drawn as free bases though some values may be those of a salt).

Where only a bound is given, the exact number is not on record here.

What is called melting point is the temperature of the solid-liquid transition. Compound `CC1(OC(=O)c2ncn3c2C2CCCN2C(=O)c2c(Cl)cccc2-3)CCCC1` (centres undefined) had a melting point of 190 to 191 °C.
Compound `CCCN1CC(c2ccc(C)cc2)=C(c2ccc(S(C)(=O)=O)cc2)C1=O` gave a melting point of 156 to 158 °C.
In turn, `CC(C)(C)c1cccc(S(=O)(=O)n2c(Cc3ccc(C4=NOC(=O)C4)cc3)cc3cc(C(F)(F)F)ccc32)c1` showed a melting point of 70 °C.
Regarding `O=C1C(Br)CCN1c1cccc(C(F)(F)F)c1` (centres undefined), the melting point is 79 to 83 °C.
As for `COc1ccc(-n2nc(Cl)cc2-c2ccc(S(C)(=O)=O)cc2)cc1C#N`, the figure is 191 to 194 °C; as for `COC(=O)c1cc(/C=C/C(=O)O)ccc1Cl`, 194 °C; as for `[N-]=[N+]=NC1CC(n2cnc3c(N4CCCC4)nc(N)nc32)OC1CO` (centres undefined), 180 to 183 °C.
In turn, `N#Cc1[nH]c(-c2ccc(Cl)cc2)c(C#N)c1Br` yielded a melting point above 225 °C.
The result for `CNC(=O)c1cccc(NC(=O)Cc2ccc(C)cc2)c1` reads 174 to 175 °C; that for `CC1(C)C(=O)c2c(cc(OCC(=O)O)c(Cl)c2Cl)C1c1ccccc1` (centres undefined), 163 to 164 °C; that for `CCCCCCCCC(=O)NCC(=O)O`, 106 to 109 °C.
The result for `C[C@H](NC(=O)c1c[nH]c2ncc(-c3cnn(C)c3)nc12)C(C)(C)C` reads 296 to 297 °C.
As for `CC(C)c1ccc(CCNc2ncnc3ncccc23)cc1`, the figure is 200 to 203 °C.
For `Cc1cnc2c(cc(C(N)=O)c3nncc32)c(-c2ccccc2F)n1`, the melting point lay within 323 to 324 °C.
In turn, `Cc1ccc(C(=O)c2cnn3c(-c4cccnc4)ccnc23)cc1` showed a melting point of 203 to 204 °C.
`COc1nc(C(F)(F)F)cc(=O)n1-c1cc(OCCON=C(C)C)c(Cl)cc1F` showed a melting point of 136 to 138 °C.
The result for `Brc1csc(-c2cn([C@H]3CN4CCC3CC4)nn2)c1` reads 106 °C; that for `CCCCc1ccc(C(=O)NCCCCCCO)cc1`, 80 to 81 °C.
In the case of `COc1cccc2c1CC1c3c(cc(OC)c(OC)c3-2)CCN1C` (centres undefined), the melting point lay in the range of 184 to 185 °C.
Compound `S=C=Nc1cccc2ccoc12` displayed a melting point of 45 to 46 °C.
As for `O=C(O)c1cc(Br)cc2c1NCCS2=O` (centres undefined), the figure is 254 to 255 °C.
The result for `CC(C)(C)C(=O)Nc1ccccc1CC(O)c1ccccc1` (centres undefined) reads 183 to 184 °C; that for `CC(C)c1nn(-c2ccc(C(F)(F)F)cn2)cc1CCCOc1cc(CCC(=O)O)n(-c2ccccc2)n1`, 139 to 140 °C; that for `C=CCNc1nc(NCCN)nc2ccc([N+](=O)[O-])cc12`, 126 to 128 °C.
The result for `CS(=O)(=O)c1ccc(N2CC(O)(C(F)(F)F)N=C2c2ccncc2)cc1` (centres undefined) reads 219 °C; that for `CCCCCC(CC(=O)Nc1cc(C(=O)NC(=O)c2ccncc2)ccc1C(C)(C)C)c1ccc(OC)cc1OC` (centres undefined), 184 to 185 °C.
Turning to `CC(=O)OCCCCCCOc1ccc([N+](=O)[O-])c(C=O)c1`, the melting point is 42 to 43 °C.
The result for `CCCOc1ccccc1-c1nc2nc(N(CC)CCO)ncc2c(=O)[nH]1` reads 141 to 142 °C; that for `Cc1c(C)c2c(c(C)c1NC(=O)CC(C)(C)C)C(O)(C1CCCCC1)C(C)(C)O2` (centres undefined), 170 to 171 °C.
As for `N#Cc1cccc(OCc2ccccc2)c1`, the figure is 38 to 40 °C; as for `CCC1(NC(=O)C(Br)CCl)COCOC1` (centres undefined), 95 to 109 °C.
Consider `Cc1cc(C)c(C2Cc3cc(NC(=O)CC(C)(C)C)cc(Cc4ccc(C(C)C)cc4)c3O2)cc1CO` (centres undefined), for which the melting point lay within 136 to 137 °C.
As for `COc1cc(OC)c(-c2cccs2)cc1/C=C/C(=O)c1ccc(S(=O)(=O)NCc2cccnc2)cc1`, the figure is 167 to 168 °C.
As for `CCOC(=O)C1(CS(=O)(=O)c2ccc(OC)cc2)CO1` (centres undefined), the figure is 77 to 79 °C; as for `CCOC(=O)c1cn(NC)c2c(F)c(F)c(F)cc2c1=O`, 189 °C.
`OCCN1CCC(=C2c3sccc3CCn3ccnc32)CC1` returned a melting point of 155 °C.
With `CCS(=O)(=O)NC1CCCCc2ccc(F)cc21` (centres undefined), the melting point fell in the range of 118 to 121 °C.
The compound `Cc1nc(SCc2ccc(Cl)cc2)nc2c1CCCC2` displayed a melting point of 48 °C.
The result for `CC12CCC(CN([Si](C)(C)C)S(=O)(=O)C1)C2(C)C` (single isomer, unassigned; (-)) reads 63 to 73 °C; that for `COC(=O)Cn1c(C(=O)N(CCC2CCCCC2)c2nc(-c3cc(OC)c(C)cc3OC)cs2)cc2ccccc21`, 144 to 146 °C.
Take `COc1cc(Nc2c(C#N)cnc3c(/C=C/CCN4CCOCC4)cccc23)c(Cl)cc1Cl`: the melting point is 176 to 179 °C.
`COc1cc(OC)c(C2=NC(NC(=O)c3cc4ccccc4[nH]3)C(=O)N(C)c3ccccc32)c(OC)c1` (centres undefined) yielded a melting point of 297 °C.
The result for `COc1ccc(N2CCN(CCn3c(=O)[nH]c4ccsc4c3=O)CC2)cc1` reads 130 to 131 °C; that for `C=C1CCC2C3CCc4cc(OC)ccc4C3CCC12C` (centres undefined), 59 to 62 °C.
As to `CC(=O)N1Cc2c(-c3noc(C4CC4)n3)ncn2-c2cccc(F)c21`, the melting point lay in the range of 208 to 210 °C.
As for `CC(C)N(CCC(CCN1CCCC1)(C(N)=O)c1ccccc1)C(C)C` (centres undefined), the figure is 79 to 80 °C; as for `COc1ccc(CN(c2ccc(F)c(Cl)c2)c2ncnc3cc(OCCCN4CCOCC4)c([N+](=O)[O-])cc23)cc1OC`, 129 to 132 °C; as for `COC(=O)/C(=C/C=C/c1cc2cc(Cl)c(Cl)cc2[nH]1)OC`, 203 to 204 °C.
As for `O=[N+]([O-])c1ccc(C(O)c2ccoc2)cc1` (centres undefined), the melting point was in the range of 50 to 52 °C.
As for `CCOC(=O)C1=C(C)NC(c2csc(C)n2)=NC1c1ccc(O)cc1` (centres undefined), the figure is 208 to 210 °C; as for `Cc1cc(C)cc(C(Cl)=NNc2ccccc2)c1`, 47.5 to 48.5 °C; as for `CCc1cn(C2CC(I)C(COC(c3ccccc3)(c3ccccc3)c3ccccc3)O2)c(=O)[nH]c1=O` (centres undefined), 93 to 98 °C.
Regarding `Oc1ccnc2ccc(Cl)cc12`, the melting point was 274 to 275 °C.
The result for `COc1cc([N+](=O)[O-])ccc1NC(=O)OCc1ccccc1` reads 130 to 131 °C; that for `CCC(C)(C)c1cc(-c2cccc(C=C3SC(N4CCOCC4)=NC3=O)c2)cc(F)c1O`, 206 to 208 °C; that for `O=C(O)CCS(=O)CCC(=O)O`, 114 °C.
As to `CCN(CC)CCC(=O)Nc1cccc2c1C(=O)c1c(NC(=O)CCN(CC)CC)cccc1C2=O`, the melting point is 166 to 167 °C.
The result for `CN1C(=O)C(NC(=O)Nc2cccc(F)c2)N=C(c2ccccc2)c2ccccc21` (centres undefined) reads 252 to 254 °C.
The compound `O=C1C=C(C(F)(F)F)N(Br)CN1c1ccc(C(F)(F)F)cn1` registered a melting point of 142 to 143 °C.
As to `O=C(O)c1ccc(OC2=C3N=C4CCCCC4=C3C(Cc3ccc(Br)cc3)C=C2)o1` (centres undefined), the melting point is 156 to 158 °C.
`NC(N)=Nc1nc(-c2csc(CNC(=O)CSCc3ccco3)n2)cs1` gave a melting point of 204 °C.
As for `N=C(Nc1ccc(Cl)cc1)Nc1ncccc1OCc1ccc(F)cc1F`, the figure is 182 to 184 °C.
As for `COc1ccc(CNC(=O)c2cc3c(=O)n(CCOc4ccc(F)cc4)c(=O)n(C)c3s2)cc1`, the figure is 170 to 171 °C; as for `CC(=O)OCC(=O)Nc1cccc2c1C(=O)N(C1CCC(=O)NC1=O)C2=O` (centres undefined), 234 to 236 °C; as for `CC1(C)CC(CN2CCNC2=N[N+](=O)[O-])CO1` (centres undefined), 119 to 120 °C.
The result for `CCn1nc2c(N)nc3ccccc3c2c1CO` reads 255 to 256 °C; that for `COc1ccc(-n2nc(OC)cc2-c2ccc(C#N)cc2)cc1`, 112 to 113 °C.
Take `CCCCCCCCCCCCCCCC(=O)OC(CCCCCCCCCCCCCCC)CC(=O)NCCC(=O)NC(CCC(=O)O)C(=O)O` (centres undefined): the melting point was in the range of 100 to 104 °C.
The result for `CCCCc1nc2c(C)cccc2n1Cc1ccc([N+](=O)[O-])cc1` reads 115 to 116 °C; that for `Cc1nnc2n1-c1ccc(C#CCn3c(C)nc4ccccc4c3=O)cc1C(c1ccccc1F)=NC2`, 241 to 244 °C; that for `CC(CF)(CF)C(O)C(Oc1ccc(Cl)cc1)n1ccnc1` (centres undefined), 137 °C.
In turn, `CCc1nc(CCc2ccc(NC(=O)/C=C/c3cnn(CC)c3-c3ccc(F)cc3)cc2)cs1` showed a melting point of 190 to 191 °C.
As for `CS(=O)(=O)c1ccc(-n2nc(-c3ccc4c(c3)CCN(C3CCC3)CC4)ccc2=O)cc1`, the figure is 225 °C; as for `CCNC(=O)n1nc(Oc2cc(OCC)ccc2[N+](=O)[O-])cc1C`, 73 to 75 °C.
The compound `O=[N+]([O-])c1cc2c(cc1NCC(O)CO)OCO2` (centres undefined) yielded a melting point of 120 to 121 °C.
The result for `Cc1ccc(C(=O)c2cccc(C(C)C#N)c2)cc1` (centres undefined) reads 52 to 55 °C.
As for `Nc1nc(OC(F)(F)F)cc(C(F)(F)F)n1`, the figure is 47 to 49 °C; as for `CCOCCN(C(=O)N(CCCl)N=O)C1(O)C(CO)OC(OC2CCCCC2)C1O` (centres undefined), 62 to 64 °C.
The result for `CN(C)S(=O)(=O)c1ccc(Oc2ccc(S(=O)(=O)c3ccccc3)cc2)cc1` reads 99 to 100 °C; that for `O=S1(=O)c2cccc3cccc(c23)N1CCCN1CCC(CC2C=Cc3ccccc32)CC1` (centres undefined), 140 °C.
`COc1ccc([N+](=O)[O-])c(C=O)c1` registered a melting point of 89 to 90 °C.
`CSc1nn2c(Cl)cc(CN3CCOCC3)nc2c1S(=O)(=O)c1ccccc1`: the melting point lay within 174 to 176 °C.
Turning to `COC(=O)CCc1ccc(-n2c(C)c(C)[nH]c2=O)cc1`, the melting point is 152 to 154 °C.
For the compound `CCOC1CC2(C)C(CCC3C4CCC(CC)C4(C)CC(N(C)C)C32)CC1O` (centres undefined), the melting point lay within 57 to 59 °C.
Regarding `C=CCc1cc(Cc2cnc(N)nc2N)c2cccnc2c1OCCOC`, the melting point is 196 to 200 °C.
The result for `CCOC=Nc1c2oc3ccccc3c2nn1C` reads 120 to 122 °C.
Take `CN1CCN=C1C(O)(c1ccccc1)c1ccccn1` (centres undefined): the melting point was in the range of 105 to 108 °C.
As for `Cc1ccc(S(=O)(=O)N2[C@@H](C(N)=O)CC[C@H]2c2ccc(F)cc2)cc1` (racemic), the figure is 137 °C.
`CCCCCCSC1=CC(=O)NC1=O` showed a melting point of 99 to 101 °C.
